Data as given in ChEMBL document CHEMBL4004838, “Design and synthesis of novel phenyl -1, 4-beta-carboline-hybrid molecules as potential anticancer agents” (Eur J Med Chem, 2017).

Key:
Type in all cases: functional
[1] = system: NCI-H226; test: Growth inhibition of human NCI-H226 cells incubated for 48 hrs by sulforhodamine B assay; conditions: NCI-H226, 48 h
[2] = system: HCT-15; test: Growth inhibition of human HCT15 cells incubated for 48 hrs by sulforhodamine B assay; conditions: HCT-15, 48 h
[3] = system: UACC-62; test: Growth inhibition of human UACC62 cells incubated for 48 hrs by sulforhodamine B assay; conditions: UACC-62, 48 h
[4] = system: SK-OV-3; test: Growth inhibition of human SKOV3 cells incubated for 48 hrs by sulforhodamine B assay; conditions: SK-OV-3, 48 h
[5] = system: A498; test: Growth inhibition of human A498 cells incubated for 48 hrs by sulforhodamine B assay; conditions: A498, 48 h
[6] = system: MDA-MB-468; test: Growth inhibition of human MDA-MB-468 cells incubated for 48 hrs by sulforhodamine B assay; conditions: MDA-MB-468, 48 h
[7] = system: CCRF-CEM; test: Growth inhibition of human CCRF-CEM cells assessed as cell growth at 0.01 uM incubated for 48 hrs by sulforhodamine B assay relative to control; conditions: read-out: Activity
[8] = system: K562; test: Growth inhibition of human K562 cells assessed as cell growth at 0.01 uM incubated for 48 hrs by sulforhodamine B assay relative to control; conditions: K562, 48 h, read-out: Activity
[9] = system: MOLT-4; test: Growth inhibition of human MOLT4 cells assessed as cell growth at 0.01 uM incubated for 48 hrs by sulforhodamine B assay relative to control; conditions: MOLT-4, 48 h, read-out: Activity
[10] = system: COLO 205; test: Growth inhibition of human COLO205 cells assessed as cell growth at 0.01 uM incubated for 48 hrs by sulforhodamine B assay relative to control; conditions: COLO 205, 48 h, read-out: Activity
[11] = system: HCT-15; test: Growth inhibition of human HCT15 cells assessed as cell growth at 0.01 uM incubated for 48 hrs by sulforhodamine B assay relative to control; conditions: HCT-15, 48 h, read-out: Activity
[12] = system: KM12; test: Growth inhibition of human KM12 cells assessed as cell growth at 0.01 uM incubated for 48 hrs by sulforhodamine B assay relative to control; conditions: KM12, 48 h, read-out: Activity
[13] = system: BT-549; test: Growth inhibition of human BT549 cells assessed as cell growth at 0.01 uM incubated for 48 hrs by sulforhodamine B assay relative to control; conditions: BT-549, 48 h, read-out: Activity
[14] = system: SR; test: Growth inhibition of human SR cells assessed as cell growth at 0.1 uM incubated for 48 hrs by sulforhodamine B assay relative to control; conditions: read-out: Activity
[15] = system: EKVX; test: Growth inhibition of human EKVX cells assessed as cell growth at 0.1 uM incubated for 48 hrs by sulforhodamine B assay relative to control; conditions: read-out: Activity
[16] = system: HOP-62; test: Growth inhibition of human HOP62 cells assessed as cell growth at 0.1 uM incubated for 48 hrs by sulforhodamine B assay relative to control; conditions: HOP-62, 48 h, read-out: Activity
[17] = system: SF-268; test: Growth inhibition of human SF268 cells assessed as cell growth at 0.1 uM incubated for 48 hrs by sulforhodamine B assay relative to control; conditions: SF-268, 48 h, read-out: Activity
[18] = system: NCI-H322M; test: Growth inhibition of human NCI-H322M cells assessed as cell growth at 1 uM incubated for 48 hrs by sulforhodamine B assay relative to control; conditions: read-out: Activity
[19] = system: HCC 2998; test: Growth inhibition of human HCC2998 cells assessed as cell growth at 1 uM incubated for 48 hrs by sulforhodamine B assay relative to control; conditions: HCC 2998, 48 h, read-out: Activity
[20] = system: SF-539; test: Growth inhibition of human SF539 cells assessed as cell growth at 1 uM incubated for 48 hrs by sulforhodamine B assay relative to control; conditions: SF-539, 48 h, read-out: Activity
[21] = system: Malme-3M; test: Growth inhibition of human MALME-3M cells assessed as cell growth at 1 uM incubated for 48 hrs by sulforhodamine B assay relative to control; conditions: read-out: Activity
[22] = system: RXF 393; test: Growth inhibition of human RXF393 cells assessed as cell growth at 1 uM incubated for 48 hrs by sulforhodamine B assay relative to control; conditions: RXF 393, 48 h, read-out: Activity
[23] = system: MDA-MB-468; test: Growth inhibition of human MDA-MB-468 cells assessed as cell growth at 1 uM incubated for 48 hrs by sulforhodamine B assay relative to control; conditions: MDA-MB-468, 48 h, read-out: Activity
[24] = system: HCC 2998; test: Growth inhibition of human HCC2998 cells assessed as cell growth at 100 uM incubated for 48 hrs by sulforhodamine B assay relative to control; conditions: HCC 2998, 48 h, read-out: Activity
[25] = system: SNB-19; test: Growth inhibition of human SNB19 cells assessed as cell growth at 100 uM incubated for 48 hrs by sulforhodamine B assay relative to control; conditions: SNB-19, 48 h, read-out: Activity
[26] = system: SK-MEL-2; test: Growth inhibition of human SK-MEL-2 cells assessed as cell growth at 100 uM incubated for 48 hrs by sulforhodamine B assay relative to control; conditions: SK-MEL-2, 48 h, read-out: Activity
[27] = system: SK-MEL-28; test: Growth inhibition of human SK-MEL-28 cells assessed as cell growth at 100 uM incubated for 48 hrs by sulforhodamine B assay relative to control; conditions: SK-MEL-28, 48 h, read-out: Activity
[28] = system: OVCAR-4; test: Growth inhibition of human OVCAR4 cells assessed as cell growth at 100 uM incubated for 48 hrs by sulforhodamine B assay relative to control; conditions: OVCAR-4, 48 h, read-out: Activity
[29] = system: CAKI-1; test: Growth inhibition of human Caki1 cells assessed as cell growth at 100 uM incubated for 48 hrs by sulforhodamine B assay relative to control; conditions: CAKI-1, 48 h, read-out: Activity
[30] = system: MDA-MB-231; test: Growth inhibition of human MDA-MB-231 cells assessed as cell growth at 100 uM incubated for 48 hrs by sulforhodamine B assay relative to control; conditions: MDA-MB-231, 48 h, read-out: Activity
[31] = read-out: LC50 (the source's name)
[32] = read-out: pLC50 (the source's name) (converted)

With `c1ccc2c3c([nH]c2c1)C(c1ccc(C2NCCc4c2[nH]c2ccccc42)cc1)NCC3` (racemic) the GI50 ([1]; read-out: GI50) was 1.96 µM, the CC50 [1, 31] was 9.1 µM and the TGI ([1]; read-out: TGI) was 4.23 µM. The GI50 ([1]; read-out: pGI50 (converted)) was 1.95 µM, the CC50 [1, 32] was 9.12 µM and the TGI ([1]; read-out: pTGI (converted)) was 4.27 µM. It also gave a GI50 ([2]; read-out: pGI50 (converted)) of 0.427 µM, a TGI ([2]; read-out: pTGI (converted)) of 1.78 µM and a CC50 [3, 31] of 5.15 µM. The GI50 ([3]; read-out: pGI50 (converted)) was 0.741 µM, the CC50 [3, 32] was 5.13 µM and the TGI ([3]; read-out: pTGI (converted)) was 2.14 µM. The GI50 ([4]; read-out: GI50) was 1.88 µM, the CC50 [4, 31] was 9.12 µM and the TGI ([4]; read-out: TGI) was 4.14 µM. For the same compound, the GI50 ([4]; read-out: pGI50 (converted)) was 1.86 µM, the CC50 [4, 32] was 9.12 µM and the TGI ([4]; read-out: pTGI (converted)) was 4.17 µM. It also gave a GI50 ([5]; read-out: GI50) of 1.64 µM, a CC50 [5, 31] of 36.9 µM and a TGI ([5]; read-out: TGI) of 8.87 µM. The GI50 ([5]; read-out: pGI50 (converted)) was 1.66 µM, the CC50 [5, 32] was 37.2 µM and the TGI ([5]; read-out: pTGI (converted)) was 8.91 µM. It also gave a CC50 [6, 31] of 5.01 µM, a GI50 ([6]; read-out: pGI50 (converted)) of 0.363 µM and a CC50 [6, 32] of 5.01 µM. For the same compound, the TGI ([6]; read-out: pTGI (converted)) was 1.35 µM, the growth at 0.01 µM [7] was 98% and the growth at 0.01 µM [8] was 113%. It also gave a growth at 0.01 µM [9] of 110%, a growth at 0.01 µM [10] of 95% and a growth at 0.01 µM [11] of 94%. It also gave a growth at 0.01 µM [12] of 101%, a growth at 0.01 µM [13] of 87% and a growth at 0.1 µM [14] of 106%. The growth at 0.1 µM [15] was 90%, the growth at 0.1 µM [16] was 85% and the growth at 0.1 µM [17] was 89%. It also gave a growth at 1 µM [18] of 65%, a growth at 1 µM [19] of 10% and a growth at 1 µM [20] of 88%. For the same compound, the growth at 1 µM [21] was 82%, the growth at 1 µM [22] was 69% and the growth at 1 µM [23] was 11%. For the same compound, the growth at 100 µM [24] was 84%, the growth at 100 µM [25] was 88% and the growth at 100 µM [26] was 93%. The growth at 100 µM [27] was 93%, the growth at 100 µM [28] was 93% and the growth at 100 µM [29] was -98%. It also gave a growth at 100 µM [30] of -92%.
`c1ccc2[nH]c(-c3ccc(-c4nccc5c4[nH]c4ccccc45)cc3)nc2c1` was tested, and the GI50 ([1]; read-out: GI50) was 2.27 µM, the CC50 [1, 31] was 9.73 µM and the TGI ([1]; read-out: TGI) was 5.56 µM. For the same compound, the GI50 ([1]; read-out: pGI50 (converted)) was 2.29 µM, the CC50 [1, 32] was 97.7 µM and the TGI ([1]; read-out: pTGI (converted)) was 5.5 µM. It also gave a GI50 ([2]; read-out: GI50) of 2.22 µM, an LC50 ([2]; read-out: LC50) of 3 µM and a TGI ([2]; read-out: TGI) of 5.61 µM. It also gave a GI50 ([2]; read-out: pGI50 (converted)) of 2.24 µM, an LC50 ([2]; read-out: pLC50 (converted)) of 30.2 µM and a TGI ([2]; read-out: pTGI (converted)) of 5.62 µM. It also gave a GI50 ([3]; read-out: GI50) of 1.6 µM, a CC50 [3, 31] of 7.62 µM and a TGI ([3]; read-out: TGI) of 3.49 µM. It also gave a GI50 ([3]; read-out: pGI50 (converted)) of 1.58 µM, a CC50 [3, 32] of 7.59 µM and a TGI ([3]; read-out: pTGI (converted)) of 3.47 µM. It also gave a CC50 [4, 31] of 4.66 µM, a GI50 ([4]; read-out: pGI50 (converted)) of 4.37 µM and a CC50 [4, 32] of 46.8 µM. For the same compound, the TGI ([4]; read-out: pTGI (converted)) was 15.8 µM, the GI50 ([5]; read-out: GI50) was 1.14 µM and the CC50 [5, 31] was 5.68 µM. The GI50 ([5]; read-out: pGI50 (converted)) was 11.5 µM, the CC50 [5, 32] was 56.2 µM and the TGI ([5]; read-out: pTGI (converted)) was 25.7 µM. It also gave a GI50 ([6]; read-out: GI50) of 2.52 µM, a CC50 [6, 31] of 4.97 µM and a TGI ([6]; read-out: TGI) of 6.62 µM. It also gave a GI50 ([6]; read-out: pGI50 (converted)) of 2.51 µM, a CC50 [6, 32] of 50.1 µM and a TGI ([6]; read-out: pTGI (converted)) of 6.61 µM. For the same compound, the growth at 0.01 µM [7] was 102%, the growth at 0.01 µM [8] was 104% and the growth at 0.01 µM [9] was 96%. It also gave a growth at 0.01 µM [10] of 94%, a growth at 0.01 µM [11] of 93% and a growth at 0.01 µM [12] of 95%. It also gave a growth at 0.01 µM [13] of 91%, a growth at 0.1 µM [14] of 93% and a growth at 0.1 µM [15] of 96%. The growth at 0.1 µM [16] was 89%, the growth at 0.1 µM [17] was 96% and the growth at 1 µM [18] was 96%. The growth at 1 µM [19] was 96%, the growth at 1 µM [20] was 98% and the growth at 1 µM [21] was 96%. It also gave a growth at 1 µM [22] of 104%, a growth at 1 µM [23] of 98% and a growth at 100 µM [24] of 76%. For the same compound, the growth at 100 µM [25] was 29%, the growth at 100 µM [26] was 64% and the growth at 100 µM [27] was 69%. For the same compound, the growth at 100 µM [28] was 42%, the growth at 100 µM [29] was 76% and the growth at 100 µM [30] was 54%.
